Source: patent US11278526B2, “Compounds and methods for treating lupus” (RECEPTOS LLC, priority 2016, dated 2022)

Tests used:
[1] = tested on: NZBWF1 mice; test: Survival in NZBWF1 SLE mouse model; assay type: in vivo; details: 0.3, 1.0, 3.0 mg/kg PO QD, Logrank p=0.0229, 0.0308, 0.0201
Procedure: As in Example 2, compound 5 was tested for efficacy in the same NZB×NZW F1 (“NZBWF1”) mouse model for SLE as compound 148. Six groups of NZBWF1 mice (Jackson Laboratories, stock #100008) were used in the study and were acclimated to the research facility for 6 weeks prior to the start of the study. Weekly measurements of proteinuria (excess serum proteins present in the urine) and body weight began at 20 weeks of age. At 22 weeks of age, the mice were assigned to groups in a balanced manner in order to achieve average body weight and average proteinuria measurements across the groups. One “naive” group consisting of 10 mice was euthanized at the start of treatment and used as a source of tissue for analysis. Treatment began at 22 weeks of age.
The five treatment groups were administered cyclophosphamide (positive control, 20 mice; introduced gradually to reduce toxicity (IP, once a week, 10 mg/kg at Weeks 22 and 23 and 50 mg/kg from Week 24 to the end of the study)), vehicle (negative control, 20 mice), or compound 5 (three groups of 20 mice), beginning at 22 weeks of age and observed over the course of 20 weeks. The three groups dosed with compound 5 received 0.3, 1.0, and 3.0 mg/kg PO QD, respectively (20 mice per dosage). Surviving animals were sacrificed at 42 weeks. […] Disease development was evaluated as disclosed in the following examples.

[2] = tested on: NZBWF1 mice; test: Tertiary Lymphatic Tissue (TLT) scoring in kidney histology; assay type: in vivo
Source text: To directly assay disease progression, left kidney histology was observed and sections were stained using H&E (left kidney fixed in 4% PFA prior to staining for infiltrating PMN, lymphocytes, and TLTs) or PAS (for analysis of glomerular glycogen and glycoproteins). No neutrophils were observed. The number of aggregates was counted per section.

| SMILES | Survival compared to vehicle [1] | Kidney TLT scores compared to naïve mice ([2]; 1.0 mg/kg or 3.0 mg/kg PO QD) | Kidney TLT scores relative to vehicle ([2]; 0.3, 1.0, 3.0 mg/kg PO QD, p<0.05, lesser degree than cyclophosphamide) |
| --- | --- | --- | --- |
| CC(C)Oc1ccc(-c2nc(-c3cccc4c3CC[C@@H]4NCCO)no2)cc1C#N [compound 5, (S)-5-(3-(1-(2-hydroxyethylamino)-2,3-dihydro-1H-inden-4-yl)-1,2,4-oxadiazol-5-yl)-2-isopropoxy benzonitrile] | improved survival compared to vehicle treated animals | – | – |
| CC(C)Oc1ccc(-c2nc(-c3cccc4c3CC[C@@H]4N)no2)cc1C#N [compound 148, (S)-5-(3-(1-amino-2,3-dihydro-1H-inden-4-yl)-1,2,4-oxadiazol-5-yl)-2-isopropoxy-benzonitrile] | – | TLT scores similar to naïve mice | significantly reduced TLT scores relative to vehicle |
